Marks after values point to notes of the source that are not given here.
Test system: KK-Ay male mice
Assay: Blood sugar and blood triglyceride (TG) lowering test in KK-Ay mice, test compound mixed with powder food
Format: in vivo
Conditions: KK-Ay male mice; dose c.a. 30 mg/kg/day (footnote a) mixed with powder food for four days; plasma triglyceride 5th day; vs control group
Text: The effect of the compound of the present invention on reducing blood sugar and blood lipid levels based on the ability of improving insulin resistance has been determined by the following test.
KK-Ay male mice of five to six week age were obtained from Nihon CREA. The mice have been bred with a powder feed (MF powders for breeding rats and mice, Oriental Yeast Co.) from 7 days prior to the test. The mice of nine to eighteen week age having body weights of 35 g or more were used for the test.
The blood sugar values were measured by withdrawing blood (20 µl) from animal's tail vein using a heparin-treated capillary, centrifuging the blood to obtain plasma, and measuring the glucose level in the plasma by the glucose-oxidase method. The triglyceride (TG) levels in plasma were measured by the glycerol enzyme method. Five mice in a group having 200 mg/dl or more of the blood sugar level were used for one test.
The test compounds were mixed with powder food such that the average dosage of the former is 10 - 100 mg/kg/day, and the mixture was administered to the mice for four days. Blood was withdrawn from the animal's tail vein before administration, and five days after administration, and blood sugar and TG levels were measured using the methods mentioned above. The amount of the food ingested was measured every day during the test period, and the average of the amounts for four days was calculated.
The ability of reducing blood sugar level was determined as described below. Namely, the means of the blood sugar values at the time before administration of the test compound in a control group (a group to which the test compound was not administered) and an administration group (a group to which the test compound was administered) (such values are referred to as Mcon and Mad, respectively) and the means of the blood sugar values of the control group and the administration group on 5th day after administration (such values are referred to as Con and Ad, respectively) were determined. The blood sugar lowering effect found in the administration group was expressed by the following formula. Blood sugar lowering effect(%) = 1-(Ad/Mad)/(Con/Mcon)x100 [formula]
The blood TG lowering ratio (%) was measured by the same procedure as that described above. All the values were statistically evaluated under significance level P=0.05.

**Q.** How did the “TG lowering ratio (%)” value turn out when O=C1NC(=O)C(=Cc2ccc3cc(OCc4cccc(F)c4)ccc3c2)S1 [compound 16] was run?
**A.** Its value is 22.3%.

**Q.** With O=C1NC(=O)C(=Cc2ccc3cc(OCc4c(F)cccc4F)ccc3c2)S1 [compound 49] as the molecule, how does the “TG lowering ratio (%)” value read?
**A.** The value was 43.4*** %.

**Q.** Which “TG lowering ratio (%)” value does the source give for O=C1NC(=O)C(=Cc2ccc3cc(OCc4ccc(F)cc4)ccc3c2)S1 [compound 17] here?
**A.** The value was 24.4%.

**Q.** O=C1NC(=O)C(=Cc2ccc3cc(OCc4ccccc4F)ccc3c2)S1 [Example 15, 5-[6-(2-fluorobenzyloxy)-2-naphthyl]-methylene-thiazolidine-2,4-dione] was tested. Which “TG lowering ratio (%)” value did it give?
**A.** Its value is 38.8%.

**Q.** With O=C1NC(=O)C(=Cc2ccc3cc(OCc4ccccc4)ccc3c2)S1 [Example 13, 5-(6-benzyloxy-2-naphthyl)-methylene-thiazolidine-2,4-dione] as the molecule, how does the “TG lowering ratio (%)” value read?
**A.** The value was 21.0%.

**Q.** With O=C1NC(=O)C(=Cc2ccc3cc(OCc4c(F)cccc4C(F)(F)F)ccc3c2)S1 [compound 50] as the molecule, how does the “TG lowering ratio (%)” value read?
**A.** Its value is 27.7** %.

Same assay, conditions: KK-Ay male mice; dose c.a. 50 mg/kg/day mixed with powder food for four days; plasma triglyceride 5th day; vs control group

**Q.** With O=C1NC(=O)C(=Cc2ccc3cc(OCc4ccc([N+](=O)[O-])cc4)ccc3c2)S1 [compound 35] as the molecule, how does the “TG lowering ratio (%)” value read?
**A.** The value was 56.9%.

**Q.** For O=C1NC(=O)C(=Cc2ccc3cc(OCc4ccc(Cl)cc4)ccc3c2)S1 [compound 19], which “TG lowering ratio (%)” value is on record?
**A.** The value was 21.7%.

**Q.** For N#Cc1ccc(COc2ccc3cc(C=C4SC(=O)NC4=O)ccc3c2)cc1 [compound 32], which “TG lowering ratio (%)” value is on record?
**A.** Its value is 39.6* %.

**Q.** O=C1NC(=O)C(=Cc2ccc3cc(OCc4ccccc4Cl)ccc3c2)S1 [compound 18] was tested. Which “TG lowering ratio (%)” value did it give?
**A.** Its value is 53.8* %.

**Q.** Which “TG lowering ratio (%)” value does the source give for Cc1ccccc1COc1ccc2cc(C=C3SC(=O)NC3=O)ccc2c1 [compound 22] here?
**A.** Its value is 9.5%.

**Q.** O=C1NC(=O)C(=Cc2ccc3cc(OCc4ccc(C(F)(F)F)cc4)ccc3c2)S1 [compound 48] was tested. Which “TG lowering ratio (%)” value did it give?
**A.** The value was 25.6%.

**Q.** Which “TG lowering ratio (%)” value does the source give for O=C1NC(=O)C(=Cc2ccc3cc(OCc4ccc(Br)cc4)ccc3c2)S1 [compound 21] here?
**A.** The value was 14.7%.

**Q.** How did the “TG lowering ratio (%)” value turn out when O=C1NC(=O)C(=Cc2ccc3cc(OCc4ccccc4[N+](=O)[O-])ccc3c2)S1 [compound 33] was run?
**A.** The value was 16.0%.

**Q.** How did the “TG lowering ratio (%)” value turn out when O=C1NC(=O)C(=Cc2ccc3cc(OCc4ccccc4C(F)(F)F)ccc3c2)S1 [compound 46] was run?
**A.** Its value is 51.0** %.

**Q.** How did the “TG lowering ratio (%)” value turn out when COC(=O)c1ccc(COc2ccc3cc(C=C4SC(=O)NC4=O)ccc3c2)cc1 [compound 39] was run?
**A.** The value was 16.0%.

Same assay, conditions: KK-Ay male mice; dose c.a. 100 mg/kg/day (footnote b) mixed with powder food for four days; plasma triglyceride 5th day; vs control group

**Q.** With O=C1NC(=O)C(=Cc2ccc3cc(OCCc4ccccc4)ccc3c2)S1 [compound 14] as the molecule, how does the “TG lowering ratio (%)” value read?
**A.** The value was 19.9%.

Same assay, conditions: KK-Ay male mice; mixed with powder food for four days; Dose: c.a. 10 mg/kg/day; plasma triglyceride (glycerol enzyme method) on 5th day vs control group

**Q.** With CCc1ccc(CCOc2ccc(CC3SC(=O)NC3=O)cc2)nc1 (stereo not drawn) [Pioglitazone, pioglitazone, reference compound] as the molecule, how does the “TG lowering ratio (%)” value read?
**A.** The value was -4.0%.

**Q.** Which “TG lowering ratio (%)” value does the source give for O=C1NC(=O)C(Cc2ccc3cc(OCc4ccc(Cl)cc4)ccc3c2)S1 (stereo not drawn) [Example 8] here?
**A.** Its value is 9.4%.

**Q.** How did the “TG lowering ratio (%)” value turn out when O=C1NC(=O)C(Cc2ccc3cc(OCc4ccccc4Cl)ccc3c2)S1 (stereo not drawn) [Example 7] was run?
**A.** Its value is 28.3%.

**Q.** O=C1NC(=O)C(Cc2ccc3cc(OCc4ccccc4C(F)(F)F)ccc3c2)S1 (stereo not drawn) [Example 10] was tested. Which “TG lowering ratio (%)” value did it give?
**A.** The value was 37.2%.

**Q.** O=C1NC(=O)C(Cc2ccc3cc(OCc4ccc(F)cc4)ccc3c2)S1 (stereo not drawn) [Example 6] was tested. Which “TG lowering ratio (%)” value did it give?
**A.** Its value is 37.7* %.

**Q.** O=C1NC(=O)C(Cc2ccc3cc(OCc4ccccc4)ccc3c2)S1 (stereo not drawn) [Example 2] was tested. Which “TG lowering ratio (%)” value did it give?
**A.** Its value is 9.1* %.

**Q.** With O=C1NC(=O)C(Cc2ccc3cc(OCc4ccccc4F)ccc3c2)S1 (stereo not drawn) [Example 4, 5-[6-(2-fluorobenzyloxy)-2-naphthyl]-methyl-thiazolidine-2,4-dione] as the molecule, how does the “TG lowering ratio (%)” value read?
**A.** Its value is 41.6* %.

Same assay, conditions: KK-Ay male mice; mixed with powder food for four days; footnote a): Dose c.a. 100 mg/kg/day; plasma triglyceride (glycerol enzyme method) on 5th day vs control group

**Q.** Which “TG lowering ratio (%)” value does the source give for O=C1NC(=O)C(Cc2ccc3cc(OCc4ccccn4)ccc3c2)S1 (stereo not drawn) [Example 1, 5-[6-(2-pyridylmethyloxy)-2-naphthyl]-methyl-thiazolidine-2,4-dione] here?
**A.** The value was 56.4%.

**Q.** How did the “TG lowering ratio (%)” value turn out when Cc1c(C)c2c(c(C)c1O)CCC(C)(COc1ccc(CC3SC(=O)NC3=O)cc1)O2 (stereo not drawn) [CS-045, reference compound] was run?
**A.** The value was -18.5%.

**Q.** O=C1NC(=O)C(Cc2ccc3cc(Oc4ccccc4)ccc3c2)S1 (stereo not drawn) [Example 3] was tested. Which “TG lowering ratio (%)” value did it give?
**A.** Its value is 31.3%.

Source: EP0604983B1, “Naphthalene derivatives” (Mitsubishi Chemical Corporation, priority 1992, dated 1994)
